How the values were obtained:
[1] = BHV3000-305 study: adverse events and liver safety on double-blind treatment
[2] = tested on: patients with episodic and chronic migraine; experiment: BHV3000-305 Phase 2/3 randomized, double-blind, placebo-controlled study of rimegepant in migraine prevention (NCT03732638): efficacy; assay type: in vivo, human
Procedure: Clinical Trial—BHV3000-305: A Phase ⅔, Randomized, Double-blind, Placebo-controlled Study to Evaluate the Efficacy and Safety of Rimegepant in Migraine Prevention (ClinicalTrials.gov Identifier: NCT03732638).
A phase ⅔ clinical study was conducted with 1629 participants, as follows.
The purpose of this is study is to compare the efficacy of BHV-3000 (rimegepant) to placebo as a preventive treatment for migraine, as measured by the reduction in the number of migraine days per month.
Study Design • Study Type: Interventional (Clinical Trial) • Actual Enrollment: 1629 participants • Allocation: Randomized • Intervention Model: Parallel Assignment • Masking: Triple (Participant, Care Provider, Investigator) • Primary Purpose: Prevention • Official Title: A Phase ⅔, Randomized, Double-blind, Placebo-controlled Study to Evaluate the Efficacy and Safety of Rimegepant in Migraine Prevention • Actual Study Start Date: Nov. 14, 2018 • Actual Primary Completion Date: Dec. 10, 2019 • Estimated Study Completion Jan. 30, 2021 • Date:
Primary Outcome Measures: • 1. Change from baseline in mean number of migraine days per month [Time Frame: Mean number of migraine days per month as assessed over 3 months (12 weeks)] Change from baseline in mean number of migraine days per month as measured over the 12-week double-blind phase of the study.
Secondary Outcome Measures: • 1. Achievement of at least a 50% reduction from baseline in mean number of moderate to severe monthly migraine days. [Time Frame: baseline to end of Week 12] Achievement of at least a 50% reduction from baseline in mean number of moderate to severe monthly migraine days over course of the double-blind treatment phase. • 2. The mean number of rescue medication days per month. [Time Frame: baseline to end of week 12 as measure per month] The mean number of rescue medication days per month over the course of the double-blind, treatment phase. Rescue medications include the rescue medications defined in this protocol. • 3. Adverse events. [Time Frame: baseline to end of Week 12] Adverse events that occur in at least 5% of treated subjects; the frequency of unique subjects with serious adverse events, adverse events leading to discontinuation and clinically significant laboratory abnormalities, as reported on case report forms. • 4. The frequency of AST or ALT elevations. [Time Frame: baseline to end of Week 12] The frequency of AST or ALT elevations >3×ULN, concurrently with bilirubin elevations >2× ULN, will be assessed by tabulating the number of unique subjects with this pairing of events. • 5. The frequency of hepatic-related adverse events and hepatic-related treatment. [Time Frame: baseline to end of Week 12] The frequency of hepatic-related adverse events and hepatic-related treatment discontinuations will be tabulated from case report forms and will be based on unique subjects reporting such events. • 6. The mean change from baseline in the MSQ role function [Time Frame: baseline to end of Week 12] The mean change from baseline in the MSQ role function—restrictive domain score at Week 12 of the double-blind treatment phase. • 7. The mean change from baseline in the MIDAS total score. [Time Frame: baseline to end of Week 12]
The mean change from baseline in the MIDAS total score at Week 12 of the double-blind treatment phase.
This pivotal study enrolled patients with both episodic and chronic migraine. The study evaluated the efficacy and safety of rimegepant 75 mg (n=370) dosed every other day for the preventive treatment of migraine in patients versus placebo (n=371) who had migraine for at least one year and 4 to 18 moderate to severe migraine attacks per month over three months prior to enrollment. During the one-month observation period, patients experienced on average 10.7 migraine days per month, with 7.4 migraine days of moderate to severe migraine during the same period.

[3] = tested on: patients with moderate to severe intensity migraine; experiment: large open-label Phase 2 trial of rimegepant; assay type: in vivo, human
Excerpt: The goal of our strategy is to deliver one medication to address patients' needs for treating their migraines.

[4] = 370 patients, rimegepant 75 mg every other day
[5] = Severity: Mild, Treated Subjects N = 370
[6] = Severity: Moderate or Severe, Treated Subjects N = 370
[7] = Severity: Moderate, Treated Subjects N = 370
[8] = Severity: Total, Treated Subjects N = 370

N[C@@H]1c2cccnc2[C@H](OC(=O)N2CCC(n3c(=O)[nH]c4ncccc43)CC2)CC[C@H]1c1cccc(F)c1F [Rimegepant, [(5S,6S,9R)-5-amino-6-(2,3-difluorophenyl)-6,7,8,9-tetrahydro-5H-cyclohepta[b]pyridin-9-yl] 4-(2-oxo-3H-imidazo[4,5-b]pyridin-1-yl)piperidine-1-carboxylate]
cases of ALT or AST >3×ULN and bilirubin >2×ULN [1, 4]: no cases
independent liver monitoring panel assessment of ALT/AST elevations [1, 4]: did not determine any ALT/AST elevations to be in the categories of probably or definitely related to study drug
safety profile [1, 4]: consistent with prior clinical trial experience
Enterobiasis [1, 5]: 0 n
Folliculitis [1, 5]: 0 n
Oral candidiasis [1, 5]: 0 n
Orchitis [1, 5]: 0 n
Otitis media [1, 5]: 0 n
Acute sinusitis [1, 6]: 0 n
Appendicitis [1, 6]: 0 n
Bacterial vaginosis [1, 6]: 0 n
Herpes zoster [1, 6]: 0 n
Pharyngitis streptococcal [1, 6]: 0 n
Pneumonia [1, 6]: 0 n
Pyelonephritis [1, 6]: 0 n
Sepsis [1, 6]: 0 n
Acute sinusitis [1, 7]: 0 n
Appendicitis [1, 7]: 0 n
Bacterial vaginosis [1, 7]: 0 n
Herpes zoster [1, 7]: 0 n
Pharyngitis streptococcal [1, 7]: 0 n
Sepsis [1, 7]: 0 n
Acute sinusitis [1, 8]: 0 n
Appendicitis [1, 8]: 0 n
Enterobiasis [1, 8]: 0 n
Folliculitis [1, 8]: 0 n
Oral candidiasis [1, 8]: 0 n
Orchitis [1, 8]: 0 n
Otitis media [1, 8]: 0 n
Pelvic inflammatory disease [1, 8]: 0 n
Pertussis [1, 8]: 0 n
Pharyngitis streptococcal [1, 8]: 0 n
Pneumonia [1, 8]: 0 n
Pyelonephritis [1, 8]: 0 n
Sepsis [1, 8]: 0 n
Tooth infection [1, 8]: 0 n
MSQoL Restrictive Role Function Domain Score Change From Baseline at Week 12, Difference (Rimegepant − Placebo) ([2]; 95% CI (0.23, 6.70), P-value 0.0358): 3.5
>=50% Reduction in Moderate or Severe Migraine Days per Month in Last Month, Stratified Risk Difference (Rimegepant − Placebo) ([2]; 95% CI (−0.6, 14.1), P-value 0.0734): 6.7
Rescue Medication Days per Month in Last Month, Difference (Rimegepant − Placebo) ([2]; 95% CI (−0.80, 0.31), P-value 0.3868): −0.2 Days per Month
Change From OP in Mean Number of Total Migraine Days per Month Overall, Difference (Rimegepant − Placebo) ([2]; 95% CI (−1.23, −0.17), P-value 0.0094): −0.7 Days per Month
Change From OP in Mean Number of Total Migraine Days per Month in Last Month, Difference (Rimegepant − Placebo) ([2]; 95% CI (−1.42, −0.14), P-value 0.0176, significant in hierarchical testing): −0.8 Days per Month
Change From OP in Mean Number of Total Migraine Days per Month In First Month, Difference (Rimegepant − Placebo) ([2]; 95% CI (−1.49, −0.36), P-value 0.0013): −0.9 Days per Month
MIDAS Total Score Change From Baseline at Week 12, Difference (Rimegepant − Placebo) ([2]; 95% CI (−4.74, 4.51), P-value 0.9616): −0.1
>=50% Reduction From OP in Mean Number of Moderate or Severe Migraine Days per Month in Last Month, Response Rate (n/N) ([2]; evaluable mITT): 167/348
Primary Endpoint: Change From OP in Mean Number of Total Migraine Days per Month in Last Month, Least-squares mean ([2]; evaluable mITT N = 348, 75 mg every other day, 95% CI (−4.95, −3.97)): −4.5 Days per Month
Rescue Medication Days per Month in Last Month, Least-squares mean ([2]; evaluable mITT N = 348, 95% CI (3.29, 4.15)): 3.7 Days per Month
Change From OP in Mean Number of Total Migraine Days per Month In First Month, Least-squares mean ([2]; evaluable mITT N = 348, 95% CI (−3.04, −2.17)): −2.6 Days per Month
Change From OP in Mean Number of Total Migraine Days per Month Overall, Least-squares mean ([2]; evaluable mITT N = 348, 95% CI (−3.94, −3.12)): −3.5 Days per Month
MSQoL Restrictive Role Function Domain Score Change From Baseline at Week 12, Least-squares mean ([2]; n 269, 95% CI (15.54, 20.56)): 18.0
MIDAS Total Score Change From Baseline at Week 12, Least-squares mean ([2]; n 269, 95% CI (−15.41, −8.21)): −11.8
reduction in mean number of migraine days as compared to placebo, (4.9-3.7)/3.7*100 ([2]; participants not taking concomitant preventive treatment): 32%
reduction from baseline in monthly migraine days ([2]; rimegepant 75 mg every other day, vs 3.7 day in placebo group, p=0.0176): 4.5 days
reduction from baseline in monthly migraine days, participants not taking concomitant preventive treatment ([2]; rimegepant group n=273, vs 3.7 day in placebo group (n=269)): 4.9 days
>=50% Reduction From OP in Mean Number of Moderate or Severe Migraine Days per Month in Last Month, Stratified Risk ([2]; stratified by prophylactic migraine medication use, 95% CI (42.7, 53.2)): 48.0
share of group with at least a 50% reduction from baseline in the mean number of moderate to severe migraine days per month ([2]; vs 41% in the placebo group): 48%
reduction in migraine days per month [3]: ≤ 5.3 days
